Laboratory results published in patent US20260265246A1 (ICAHN SCHOOL OF MEDICINE AT MOUNT SINAI, priority 2021, published 2026).
Where two headings read alike, the source gives them in different places.

How the values were obtained:
[1] = target: T1, 5HT2A receptor (Homo sapiens, UniProt P28223); experiment: cell-based; set-up: expressed in transfected cells; host or cells: HEK293T cells, transient co-transfection; details: for Emax: HEK-293T
[2] = target: T1, 5HT2A receptor; experiment: biochemical; assay type: binding; set-up: expressed in transfected cells; crude membranes
[3] = target: T1, 5HT2A receptor; experiment: cell-based; set-up: expressed in transfected cells; host or cells: HEK293T cells, transient co-transfection; details: for Emax: HEK-293T; remark: listed apart in the source
[4] = 5HT2A Gq EC50 (nM), BRET2 Gαq dissociation, HEK293T cells
[5] = BRET2 Gαq dissociation, HEK293T cells, normalized to 5-HT, read-out: 5HT2A Gq Emax (%)
[6] = 5HT2A Ki (nM), secondary radioligand binding, Ki from IC50 by Cheng-Prusoff
[7] = 5HT2A β-Arr EC50 (nM), BRET1 beta-arrestin2 recruitment, HEK293T cells
[8] = BRET1 beta-arrestin2 recruitment, HEK293T cells, normalized to 5-HT, read-out: 5HT2A β-Arr Emax (%)
[9] = 5HTA Gq EC50 (nM), BRET2 Gαq dissociation, HEK293T
[10] = BRET2 Gαq dissociation, HEK293T, normalized to 5-HT, read-out: 5HTA Gq Emax (%)
[11] = 5HT2A Ki (nM), secondary binding assay, Cheng-Prusoff
[12] = 5HT2A β-Arr EC50 (nM), BRET1 beta-arrestin2 recruitment, HEK293T
[13] = BRET1 beta-arrestin2 recruitment, HEK293T, normalized to 5-HT, read-out: 5HT2A β-Arr Emax (%)
[14] = BRET2 Gαq dissociation, HEK293T cells, read-out: 5HT2A Gq EC50
[15] = secondary radioligand binding, Ki from IC50 by Cheng-Prusoff, read-out: 5HT2A Ki
[16] = BRET1 beta-arrestin2 recruitment, HEK293T cells, read-out: 5HT2A β-Arr EC50
[17] = BRET2 Gαq dissociation, HEK293T, read-out: 5HTA Gq EC50
[18] = secondary binding assay, Cheng-Prusoff, read-out: 5HT2A Ki
[19] = BRET1 beta-arrestin2 recruitment, HEK293T, read-out: 5HT2A β-Arr EC50

T1 sequence (P28223 whole entry): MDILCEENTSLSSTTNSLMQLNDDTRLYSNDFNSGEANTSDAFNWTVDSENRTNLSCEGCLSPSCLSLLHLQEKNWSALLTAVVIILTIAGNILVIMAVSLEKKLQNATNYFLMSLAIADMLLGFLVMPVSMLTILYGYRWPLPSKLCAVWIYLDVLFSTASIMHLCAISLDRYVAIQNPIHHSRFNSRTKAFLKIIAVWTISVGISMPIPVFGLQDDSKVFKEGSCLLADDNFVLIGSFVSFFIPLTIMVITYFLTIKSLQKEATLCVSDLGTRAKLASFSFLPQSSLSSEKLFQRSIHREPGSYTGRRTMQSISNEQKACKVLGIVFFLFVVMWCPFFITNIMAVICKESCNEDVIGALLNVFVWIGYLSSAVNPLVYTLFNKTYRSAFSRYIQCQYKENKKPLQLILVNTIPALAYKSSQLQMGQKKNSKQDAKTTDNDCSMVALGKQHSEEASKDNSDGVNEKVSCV

Row | SMILES | Emax [1, 5] [%] | Ki [2, 6] [nM] | EC50 [3, 7] [nM] | Emax [3, 8] [%] | Emax [1, 10] [%] | Ki [2, 11] [nM] | EC50 [3, 12] [nM] | Emax [3, 13] [%] | other results
1 | Cc1ccc2c(C3=CCCNC3)n[nH]c2c1 [Example 76, 6-methyl-3-(1,2,5,6-tetrahydropyridin-3-yl)-1H-indazole] | 93.6 | 2460 | 1500 | 88.7 | – | – | – | – | EC50 [1, 4]: 118 nM
2 | FC(F)(F)CCN1CCC=C(c2n[nH]c3c(Cl)cccc23)C1 [Example 164, 7-chloro-3-(1-(3,3,3-trifluoropropyl)-1,2,5,6-tetrahydropyridin-3-yl)-1H-indazole] | – | – | – | – | 52.9 | > 10000 | 836 | 23.3 | EC50 [1, 9]: 518 nM
3 | CN1CCCC(c2c[nH]c3c(Cl)cccc23)C1 (single isomer, unassigned) [Example 113, 7-chloro-3-(1-methylpiperidin-3-yl)-1H-indole] | – | 1430 | 1520 | – | – | – | – | – | EC50 [1, 4]: 279 nM; Emax ([1]; read-out: 5HT2A Gq Emax (%), BRET2 Gαq dissociation, HEK293T cells, normalized to 5-HT): 84.9%; Emax ([3]; read-out: 5HT2A β-Arr Emax (%), BRET1 beta-arrestin2 recruitment, HEK293T cells, normalized to 5-HT): 62.6%
4 | CCN1CCC=C(c2nn(CC)c3c(Cl)cccc23)C1 [Example 146, 7-chloro-1-ethyl-3-(1-ethyl-1,2,5,6-tetrahydropyridin-3-yl)-1H-indazole] | – | – | – | – | 54.5 | 171 | 1530 | 56.7 | EC50 [1, 9]: 51.7 nM
5 | Cc1cccc2c(C3CN(C)C3)c[nH]c12 [Example 261, 7-methyl-3-(1-methylazetidin-3-yl)-1H-indole] | – | – | – | – | 69.3 | 1680 | 1650 | 26.1 | EC50 [1, 9]: 196 nM
6 | CN1CCC=C(c2n[nH]c3cc(F)ccc23)C1 [Example 95, 6-fluoro-3-(1-methyl-1,2,5,6-tetrahydropyridin-3-yl)-1H-indazole] | 47.1 | – | – | 27 | – | – | – | – | EC50 [1, 14]: 21.1 nM; Ki [2, 15]: 47.3 nM; EC50 [3, 16]: 467 nM
7 | CN1CCC=C(c2c[nH]c3nccc(Cl)c23)C1 [Example 15, 4-chloro-3-(1-methyl-1,2,5,6-tetrahydropyridin-3-yl)-1H-pyrrolo[2,3-b]pyridine] | 68.8 | 465 | 683 | 31.5 | – | – | – | – | EC50 [1, 4]: 23.5 nM
8 | COc1ccc2[nH]nc(C3=CCCN(C)C3)c2c1 [Example 104, 5-methoxy-3-(1-methyl-1,2,5,6-tetrahydropyridin-3-yl)-1H-indazole] | 88.2 | 501 | 681 | 83.7 | – | – | – | – | EC50 [1, 14]: 82.8 nM
9 | CN1CCC=C(c2c[nH]c3ncc(F)cc23)C1 [Example 118, 5-fluoro-3-(1-methyl-1,2,5,6-tetrahydropyridin-3-yl)-1H-pyrrolo[2,3-b]pyridine] | 109 | 80.3 | 49.4 | 56.7 | – | – | – | – | EC50 [1, 4]: 31.6 nM
10 | Cc1cc(F)cc2c(C3=CCCN(C)C3)c[nH]c12 [Example 116, 5-fluoro-7-methyl-3-(1-methyl-1,2,5,6-tetrahydropyridin-3-yl)-1H-indole] | 125 | – | 129 | 56.1 | – | – | – | – | EC50 [1, 14]: 74 nM; Ki [2, 15]: 99.6 nM
11 | CN1CCC=C(c2c[nH]c3ncc(-c4ccccc4)cc23)C1 [Example 8, 3-(1-methyl-1,2,5,6-tetrahydropyridin-3-yl)-5-phenyl-1H-pyrrolo[2,3-b]pyridine] | 95.5 | 156 | 811 | 58.3 | – | – | – | – | EC50 [1, 4]: 67 nM
12 | CN1CCC=C(c2n[nH]c3c(Cl)cc(F)cc23)C1 [Example 130, 7-chloro-5-fluoro-3-(1-methyl-1,2,5,6-tetrahydropyridin-3-yl)-1H-indazole] | – | – | – | – | 91.4 | – | – | 88.5 | EC50 [1, 17]: 12.9 nM; Ki [2, 18]: 19.5 nM; EC50 [3, 19]: 165 nM
13 | CN1CCC=C(c2n[nH]c3c(Cl)cccc23)C1 [Example 106, 7-chloro-3-(1-methyl-1,2,5,6-tetrahydropyridin-3-yl)-1H-indazole] | 85.5 | 332 | 176 | 66.8 | – | – | – | – | EC50 [1, 14]: 39.1 nM
14 | COc1cccc2[nH]cc(C3=CCCN(C)C3)c12 [Example 20, 4-methoxy-3-(1-methyl-1,2,5,6-tetrahydropyridin-3-yl)-1H-indole] | 91 | – | – | 47.7 | – | – | – | – | EC50 [1, 14]: 3 nM; Ki [2, 15]: 60 nM; EC50 [3, 16]: 61.8 nM
15 | C=CCN1CCC=C(c2n[nH]c3c(Cl)cccc23)C1 [Example 124, 3-(1-allyl-1,2,5,6-tetrahydropyridin-3-yl)-7-chloro-1H-indazole] | 64.9 | 159 | 1010 | 35.3 | – | – | – | – | EC50 [1, 14]: 49.6 nM
16 | N#Cc1cccc2c(C34CNCCC3C4)n[nH]c12 (centres unmarked) [Example 195, 3-(3-azabicyclo[4.1.0]heptan-1-yl)-1H-indazole-7-carbonitrile] | – | – | – | – | 77.4 | > 10000 | 1040 | 21.7 | EC50 [1, 9]: 1090 nM
17 | CCCN1CC=C(c2n[nH]c3c(Cl)cccc23)C1 [Example 213, 7-chloro-3-(1-propyl-2,5-dihydro-1H-pyrrol-3-yl)-1H-indazole] | – | – | – | – | 61.3 | 1770 | 211 | 31.5 | EC50 [1, 17]: 72.7 nM
18 | CCCN1CCC=C(c2c[nH]c3c(F)cccc23)C1 [Example 156, 7-fluoro-3-(1-propyl-1,2,5,6-tetrahydropyridin-3-yl)-1H-indole] | – | – | – | – | 103 | 164 | – | 58.4 | EC50 [1, 17]: 20.2 nM; EC50 [3, 19]: 61.2 nM
19 | N#Cc1cccc2c(C3=CCCNC3)n[nH]c12 [Example 91, 3-(1,2,5,6-tetrahydropyridin-3-yl)-1H-indazole-7-carbonitrile] | 126 | 237 | 105 | 86 | – | – | – | – | EC50 [1, 14]: 17.2 nM
20 | Cc1cccc2c(C34CNCC3C4)c[nH]c12 (centres unmarked) [Example 272, 3-(3-azabicyclo[3.1.0]hexan-1-yl)-7-methyl-1H-indole] | – | – | – | – | 89.5 | 890 | 1500 | 38 | EC50 [1, 9]: 100 nM
21 | CCc1cccc2c(C3=CCCN(C)C3)n[nH]c12 [Example 122, 7-ethyl-3-(1-methyl-1,2,5,6-tetrahydropyridin-3-yl)-1H-indazole] | 102 | 816 | 247 | 42.9 | – | – | – | – | EC50 [1, 4]: 151 nM
22 | N#Cc1cccc2c(C34CNCC3C4)n[nH]c12 (centres unmarked) [Example 184, 3-(3-azabicyclo[3.1.0]hexan-1-yl)-1H-indazole-7-carbonitrile] | – | – | – | – | 103 | 5680 | 1970 | 68.2 | EC50 [1, 9]: 423 nM
23 | Fc1cccc2c(C34CNCC3C4)n[nH]c12 (centres unmarked) [Example 187, 3-(3-azabicyclo[3.1.0]hexan-1-yl)-7-fluoro-1H-indazole] | – | – | – | – | 71.6 | 699 | 648 | 35 | EC50 [1, 9]: 136 nM
24 | CN1CCC=C(c2c[nH]c3c(Cl)c(F)ccc23)C1 [Example 128, 7-chloro-6-fluoro-3-(1-methyl-1,2,5,6-tetrahydropyridin-3-yl)-1H-indole] | – | – | – | – | 89.2 | – | – | 56.5 | EC50 [1, 17]: 11.9 nM; Ki [2, 18]: 15.3 nM; EC50 [3, 19]: 66.1 nM
25 | CCCN1CCC=C(c2c[nH]c3c(Cl)c(F)ccc23)C1 [Example 160] | – | – | – | – | – | 151 | 144 | – | EC50 [1, 9]: 74.5 nM; Emax ([1]; read-out: 5HTA Gq Emax (%), BRET2 Gαq dissociation, HEK293T, normalized to 5-HT): 84.1%; Emax ([3]; read-out: 5HT2A β-Arr Emax (%), BRET1 beta-arrestin2 recruitment, HEK293T, normalized to 5-HT): 30.9%
26 | CN1CCC=C(c2c[nH]c3c(C(F)(F)F)cccc23)C1 [Example 59, 3-(1-methyl-1,2,5,6-tetrahydropyridin-3-yl)-7-(trifluoromethyl)-1H-indole] | 81.7 | – | – | 56.9 | – | – | – | – | EC50 [1, 14]: 17.8 nM; Ki [2, 15]: 25.8 nM; EC50 [3, 16]: 75.5 nM
27 | CCN1CCC=C(c2n[nH]c3c(Cl)cccc23)C1 [Example 145, 7-chloro-3-(1-ethyl-1,2,5,6-tetrahydropyridin-3-yl)-1H-indazole] | – | – | – | – | 64.4 | 123 | – | 42.4 | EC50 [1, 17]: 23.3 nM; EC50 [3, 19]: 77 nM
28 | CCCN1CCC=C(c2n[nH]c3cccc(C#N)c23)C1 [Example 175, 3-(1-propyl-1,2,5,6-tetrahydropyridin-3-yl)-1H-indazole-4-carbonitrile] | – | – | – | – | 46.3 | 8250 | 343 | 31.6 | EC50 [1, 17]: 88.8 nM
